The values that follow are results of earlier work, collected in article PMC8258280 (Virologica Sinica, 2021).

pIC50: −log10 of the molar value.

In this data set the test system is SARS-CoV 3CL^pro. The following applies: read-out: IC50 against SARS-CoV 3CL^pro.

Broadly, the pIC50 is the IC50 on a negative log10 scale, so that one unit is a factor of ten. `O=c1cc(-c2ccc(O)c(-c3c(O)cc(O)c4c(=O)cc(-c5ccc(O)cc5)oc34)c2)oc2cc(O)cc(O)c12` [amentoflavone]: the pIC50 is 5.08.
